Laboratory results as given in publication PMC12788799, “Affinity-guided labeling reveals P2X7 nanoscale membrane redistribution during BV2 microglial activation” (eLife, 2026).
Substitutions are numbered along the chain they refer to.

Legend:
Format in all cases: cell-based
[1] = molecular target: T1, mouse P2X7 (Mus musculus, UniProt Q9Z1M0); assay: Competition:[…] blocks X7-uP labeling of endogenous P2X7 (pull-down western blot, confocal)
T1 construct: gene P2rx7; endogenous P2X7 in BV2 cells
T1 sequence (Q9Z1M0 1-595): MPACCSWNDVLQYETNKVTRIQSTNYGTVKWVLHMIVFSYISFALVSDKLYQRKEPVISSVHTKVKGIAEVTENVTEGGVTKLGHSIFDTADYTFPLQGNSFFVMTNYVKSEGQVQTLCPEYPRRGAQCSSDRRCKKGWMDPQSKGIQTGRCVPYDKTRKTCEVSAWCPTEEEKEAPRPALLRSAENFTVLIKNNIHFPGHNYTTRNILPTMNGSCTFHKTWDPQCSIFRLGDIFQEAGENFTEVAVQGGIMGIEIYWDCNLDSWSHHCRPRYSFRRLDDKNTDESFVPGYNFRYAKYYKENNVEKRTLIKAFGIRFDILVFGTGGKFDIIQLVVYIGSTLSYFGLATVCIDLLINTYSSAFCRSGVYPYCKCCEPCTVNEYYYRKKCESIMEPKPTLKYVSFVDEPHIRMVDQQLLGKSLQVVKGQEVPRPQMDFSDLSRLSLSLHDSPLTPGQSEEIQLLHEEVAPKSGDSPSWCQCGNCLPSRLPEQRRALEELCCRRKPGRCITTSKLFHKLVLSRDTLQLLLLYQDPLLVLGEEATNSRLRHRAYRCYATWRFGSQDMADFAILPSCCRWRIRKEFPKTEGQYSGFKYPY

[2] = molecular target: T2, rat P2X7 (rP2X7) (Rattus norvegicus, UniProt Q64663); assay: Whole-cell patch-clamp, inhibition of BzATP-evoked currents at […] in HEK293T cells; also blocks X7-uP labeling; set-up: gene P2rx7
T2 sequence (Q64663 1-595): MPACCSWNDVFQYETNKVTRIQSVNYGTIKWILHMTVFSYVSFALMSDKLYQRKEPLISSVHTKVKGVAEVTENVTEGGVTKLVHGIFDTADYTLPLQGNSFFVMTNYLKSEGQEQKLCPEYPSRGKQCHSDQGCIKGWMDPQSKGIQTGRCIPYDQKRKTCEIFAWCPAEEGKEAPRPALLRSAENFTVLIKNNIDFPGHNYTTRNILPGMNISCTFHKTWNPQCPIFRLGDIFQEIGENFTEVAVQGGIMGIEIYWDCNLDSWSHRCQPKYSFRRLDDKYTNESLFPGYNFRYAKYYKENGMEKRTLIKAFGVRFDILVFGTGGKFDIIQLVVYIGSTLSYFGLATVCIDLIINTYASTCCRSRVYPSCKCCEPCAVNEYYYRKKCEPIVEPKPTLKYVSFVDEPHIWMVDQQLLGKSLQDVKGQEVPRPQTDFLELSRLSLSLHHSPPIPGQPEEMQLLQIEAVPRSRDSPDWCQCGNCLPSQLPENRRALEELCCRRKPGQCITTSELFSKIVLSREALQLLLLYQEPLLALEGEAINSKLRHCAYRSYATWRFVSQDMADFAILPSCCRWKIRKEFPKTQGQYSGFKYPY

[3] = molecular target: T1, mouse P2X7; assay: Covalent biotinylation of endogenous receptor with […] X7-uP, pull-down western blot and confocal imaging, blocked by AZ10606120 or A740003
[4] = molecular target: T3, rat P2X7 (rP2X7) (Rattus norvegicus, UniProt Q64663, K82A/K117A); assay: Whole-cell patch-clamp, reversible inhibition of BzATP-evoked currents by […] X7-uP in HEK293T cells
T3 construct: gene P2rx7; P2X7-mScarlet background
T3 sequence (Q64663 1-595 K82A/K117A): T2 sequence (Q64663 1-595) with K82A, K117A

[5] = molecular target: T2, rat P2X7 (rP2X7); assay: Kinetics of covalent biotinylation in HEK293T cells (pull-down western blot); whole-cell patch-clamp inhibition of BzATP currents; set-up: gene P2rx7; P2X7c-myc

SMILES	Competition: 10 μM blocks X7-uP labeling of endogenous P2X7 (pull-down western b) [1]	inhibition at 1 µM [2] [%]	% labeled [3] [% labeled]	Whole-cell patch-clamp, reversible inhibition of BzATP-evoked currents by 0.5 μM [4]	Kd [5] [µM]
O=C(CC12CC3CC(CC(C3)C1)C2)Nc1cccc2nc(NCCNCCO)ccc12 [AZ10606120]	This band disappeared upon co-incubation with AZ10606120 or A740003	99.7			
N#CCN(C(=O)CCOCCOCCOCCOCCNC(=O)CCCC[C@@H]1SC[C@@H]2NC(=O)N[C@@H]21)S(=O)(=O)c1ccc(C(=O)NCCNc2ccc3c(NC(=O)CC45CC6CC(CC(C6)C4)C5)cccc3n2)cc1 [X7-uP, N-(2-((5-(2-(adamantan-1-yl)acetamido)quinolin-2-yl)amino)ethyl)–4-(N-(cyanomethyl)-N-(17-oxo-21-((3aR,4R,6aS)–2-oxo-hexahydro-1H-thieno[3,4-d]imidazol-4-yl)–4,7,10,13-tetraoxa-16-azahenico-sanoyl)sulfamoyl)benzamide]			80	the double K82A/K117A mutant did not affect the ability of X7-uP to inhibit BzATP-evoked currents	7.3
